How the values were obtained:
Assay type in all cases: cell-based
[1] = system: Primary human fibroblasts derived from IPF patients (LL29 cells); test: Inhibition of the fibrotic process: αSMA staining in TGF-β1-treated LL29 fibroblasts; details: Fibroblast; for EC50: 96 h, LL29 cells, TGF-β1 20 ng/mL, 4 days, % αSMA-positive cells; for inhibition at 10 µM: read-out: percent inhibition at 10 μM
From the text: Representative compounds were screened using primary human fibroblasts (derived from IFF patients) treated with TGF-β1 to determine their ability to inhibit the fibrotic process.
K. L., et.al., “RhoA signaling modulates cyclin D1 expression in human lung fibroblasts; implications for idiopathic pulmonary fibrosis”, Respiratory Research (2006), 7(1), 88] were obtained from American Type Culture Collection (ATCC) and expanded in F12 medium supplemented with 15% Fetal Bovine Serum and Penicillin/Streptomycin.
LL29 cells are plated at 1,500 cells/well in 80 μL/well F12 medium supplemented with 1% Fetal Bovine Serum. […] Wells treated with TGF-β1 and containing DMSO were used as controls. […] Following incubation for 4 days, SYTOX green nucleic acid stain (Life Technologies [Thermo Fisher Scientific]) was added to the wells at a final concentration of 1 μM and incubated at room temperature for 30 min.

[2] = system: primary human mesenchymal stem cells (hMSCs); test: Induction of chondrogenesis in hMSCs (nodule imaging, Rhodamine B / Nile Red); details: 6 days; for Emax: relative to TGF-β3 (10 ng/mL) positive control, read-out: Max. Activity as % TGF-β3 activity; for EC50: concentration required to induce 50% levels of chondrogenesis vs TGF-β3, read-out: Conc (nM) of 50% TGF-β3 activity
From the text: Representative compounds were screened using primary human mesenchymal stem cells (hMSCs) to determine their ability to induce chondrogenesis (process by which cartilage is developed).
Primary human mesenchymal stem cells (hMSCs) were purchased from Lonza (Walkersville, Md.) and expanded in Mesenchymal Stem Cell Growth Media (Lonza). Cells between passage 3 and 6 were used for the experiments.
Area of nodules in each well was normalized to the average of 3 DMSO treated wells on the same plate using Excel (Microsoft Inc.). The normalized averages (fold change over DMSO) of 2 or 3 replicate wells for each compound concentration were calculated. Due to solubility limitations of some of the compounds, curve fitting was incomplete leading to inaccurate EC50 determinations.
Using TGF-β3 as a positive control, the concentration of representative compounds required to induce 50% levels of chondrogenesis is reported. In addition, the maximum activity of each compound and the respective dose that each compound reached maximum chondrogenesis activity is reported.

[3] = system: Wnt activity (Sp5-Luc reporter, SW480 colon carcinoma cells); test: Screening assay for Wnt activity: Sp5-Luc reporter gene assay in SW480 cells; details: Homo sapiens; for EC50: SW480 Sp5-Luc reporter, overnight incubation; for inhibition at 10 µM: SW480, read-out: percent inhibition at 10 μM
From the text: The screening assay for Wnt activity is described as follows. Reporter cell lines can be generated by stably transducing cancer cell lines (e.g., colon cancer) or primary cells (e.g., IEC-6 intestinal cells) with a lentiviral construct that includes a Wnt-responsive promoter driving expression of the firefly luciferase gene.
SW480 colon carcinoma cells were transduced with a lentiviral vector expressing luciferase with a human Sp5 promoter consisting of a sequence of eight TCF/LEF binding sites. SW480 cells stably expressing the Sp5-Luc reporter gene and a hygromycin resistance gene were selected by treatment with 150 μg/mL of hygromycin for 7 days. These stably transduced SW480 cells were expanded in cell culture and used for all further screening activities. […] For Sp5-Luc reporter gene assays, the cells were plated at 4,000 cells/well in 384-well plates with medium containing 1% fetal bovine serum and incubated overnight at 37° C. and 5% CO2. Following incubation, 20 μl of BrightGlo luminescence reagent (Promega) was added to each well of the 384-well assay plates. The plates were placed on an orbital shaker for 2 min and then luminescence was quantified using the Envision (Perkin Elmer) plate reader. Readings were normalized to DMSO only treated cells, and normalized activities were utilized for EC50 calculations using the dose-response log (inhibitor) vs. response-variable slope (four parameters) nonlinear regression feature available in GraphPad Prism 5.0 (or Dotmatics).

SW480 colon cancer cells = test: Cell viability assay (CellTiter-Blue) in SW480 colon cancer cells; details: Homo sapiens; for EC50: 96 h, SW480 cell viability, four days incubation; for inhibition at 10 µM: SW480, read-out: percent inhibition at 10 μM
Protocol: Representative compounds were screened using the following assay procedure to assess the effect on cell viability as described below.
Approximately 2×10^3 SW480 colon cancer cells were seeded into each well and allowed to incubate in the presence or absence of compound for four days at 37° C./5% CO2. Eight replicates of DMSO-treated cells served as controls and cells treated with compound were performed in duplicate.
After incubation, 20 μL of CellTiter-Blue (Promega) was added to each well allowed to incubate for approximately 3 hours. This reagent was a buffered solution which contains resazurin, metabolically active cells were able to reduce rezarurin (blue) into resorufin (pink) which was highly fluorescent. This measured fluorescence was used as a readout for cell viability.

IL-6 (THP-1 cells) = test: IL-6 inhibition in THP-1 monocytes (HTRF); details: Homo sapiens; for EC50: IL-6 inhibition, THP-1 cells, HTRF, 10-point dose-response starting from 10 μM; for inhibition at 10 µM: THP-1, read-out: percentage in parentheses printed under EC50 >10
Protocol: Compound Screening: THP-1 cells were cultured in basal media with 1% FBS for 24 hours before the start of the assay. […] THP-1 cells were plated at 5000 cells/well in the 384-well plates and incubated at 37° C. for 2 h. 500 ng/mL of […] was added after 2 hours and cells were incubated for another 22 hours at 37° C. Plates were spun in a centrifuge for 1 minute at 10,000 rpm and a mixture of anti-IL6 XL665, and anti-IL6 Cryptate diluted in reconstitution buffer (Cisbio Inc.) was added to each well. Following incubation for 3 hrs at room temperature, Homogeneous Time-Resolved Fluorescence (HTRF) was measured using the Envision (Perkin Elmer) at 665 nm and […]. The ratio of fluorescence at 665 nm to 620 nm was used as a readout for IL6 quantification. All samples were processed in duplicate. Readings were normalized to DMSO treated cells and normalized activities were utilized for EC50 calculations using the dose-response log (inhibitor) vs. response-variable slope (four parameters) nonlinear regression feature available in GraphPad Prism 5.0 (or Dotmatics).

For c1cc2cc(-c3n[nH]c4ccc(-c5cncc(CNCC6CCCC6)c5)cc34)[nH]c2cn1 [Compound 277, 1-(5-(3-(1H-Pyrrolo[2,3-c]pyridin-2-yl)-1H-indazol-5-yl)pyridin-3-yl)-N-(cyclopentylmethyl)methanamine], the EC50 [1] was 1390 nM, the Emax [2] was 49% and the EC50 [3] was 1460 nM. It also gave an EC50 (SW480 colon cancer cells) of 1390 nM and an EC50 (IL-6 (THP-1 cells)) of 31 nM.
c1cc(-c2cncc3[nH]c(-c4n[nH]c5ccc(-c6cncc(CN7CCCC7)c6)cc45)cc23)ccn1 [Compound 126, 3-(4-(Pyridin-4-yl)-1H-pyrrolo[2,3-c]pyridin-2-yl)-5-(5-(pyrrolidin-1-ylmethyl)pyridin-3-yl)-1H-indazole] was tested, and the EC50 [1] was 1490 nM, the Emax [2] was 48% and the EC50 [3] was 3390 nM. It also gave an EC50 (SW480 colon cancer cells) of 2310 nM and an EC50 (IL-6 (THP-1 cells)) of 2160 nM.
Cc1ccncc1-c1ccc2[nH]nc(-c3cc4ccncc4[nH]3)c2c1 [Compound 257, 5-(4-Methylpyridin-3-yl)-3-(1H-pyrrolo[2,3-c]pyridin-2-yl)-1H-indazole] showed an EC50 [1] of 484 nM, an EC50 [2] of 300 nM and an Emax [2] of 161%. It also gave an EC50 [3] of 191 nM, an EC50 (SW480 colon cancer cells) of 109 nM and an EC50 (IL-6 (THP-1 cells)) of 26 nM.
CCCC(=O)Nc1cncc(-c2ccc3[nH]nc(-c4cc5ccncc5[nH]4)c3c2)c1 [Compound 269, N-(5-(3-(1H-Pyrrolo[2,3-c]pyridin-2-yl)-1H-indazol-5-yl)pyridin-3-yl) butyramide] gave an EC50 [1] of 410 nM, an EC50 [2] of 900 nM and an Emax [2] of 152%. The EC50 [3] was 452 nM, the EC50 (SW480 colon cancer cells) was 986 nM and the EC50 (IL-6 (THP-1 cells)) was 22 nM.
Compound Cn1cc(-c2ccc3[nH]nc(-c4cc5c(-c6cccnc6)cncc5[nH]4)c3c2)cn1 [Compound 556, 5-(1-Methyl-1H-pyrazol-4-yl)-3-(4-(pyridin-3-yl)-1H-pyrrolo[2,3-c]pyridin-2-yl)-1H-indazole] has an EC50 [1] of over 10000 nM, an inhibition at 10 µM [1] of 0% and an EC50 [2] of 30 nM. It also gave an Emax [2] of 65%, an EC50 [3] of 250 nM and an EC50 (SW480 colon cancer cells) of 506 nM. The inhibition at 10 µM (IL-6 (THP-1 cells)) was 44.3% and the EC50 (IL-6 (THP-1 cells)) was over 10000 nM.
Work on CN1CCN(c2cncc3[nH]c(-c4n[nH]c5ccc(-c6cncc(NC(=O)CC7CCNCC7)c6)cc45)cc23)CC1 [Compound 641, N-(5-(3-(4-(4-Methylpiperazin-1-yl)-1H-pyrrolo[2,3-c]pyridin-2-yl)-1H-indazol-5-yl)pyridin-3-yl)-2-(piperidin-4-yl)acetamide] yielded an EC50 [1] of 6440 nM, an EC50 [2] of 100 nM and an Emax [2] of 289%. For the same compound, the inhibition at 10 µM [3] was 6.7%, the EC50 [3] was over 10000 nM and the EC50 (SW480 colon cancer cells) was over 10000 nM. The inhibition at 10 µM (SW480 colon cancer cells) was 11.9%, the inhibition at 10 µM (IL-6 (THP-1 cells)) was 43.7% and the EC50 (IL-6 (THP-1 cells)) was over 10000 nM.
Compound CS(=O)(=O)NCc1cc(F)cc(-c2cncc3[nH]c(-c4n[nH]c5ccc(-c6cncc(NC(=O)C7CCC7)c6)cc45)cc23)c1 [Compound 497, N-(5-(3-(4-(3-Fluoro-5-(methylsulfonamidomethyl)phenyl)-1H-pyrrolo[2,3-c]pyridin-2-yl)-1H-indazol-5-yl)pyridin-3-yl)cyclobutanecarboxamide] has an EC50 [1] of 5430 nM, an Emax [2] of 15% and an EC50 [3] of 554 nM. It also gave an EC50 (SW480 colon cancer cells) of 1100 nM and an EC50 (IL-6 (THP-1 cells)) of 198 nM.
CCNCc1cncc(-c2ccc3[nH]nc(-c4cc5c(-c6cc(F)cc(CNS(C)(=O)=O)c6)cncc5[nH]4)c3c2)c1 [Compound 482, N-(3-(2-(5-(5-((Ethylamino)methyl)pyridin-3-yl)-1H-indazol-3-yl)-1H-pyrrolo[2,3-c]pyridin-4-yl)-5-fluorobenzyl)methanesulfonamide] was tested, and the EC50 [1] was over 10000 nM, the inhibition at 10 µM [1] was 17.1% and the EC50 [2] was 100 nM. The Emax [2] was 58%, the inhibition at 10 µM [3] was 29.8% and the EC50 [3] was over 10000 nM. It also gave an EC50 (SW480 colon cancer cells) of over 10000 nM, an inhibition at 10 µM (SW480 colon cancer cells) of 24.3% and an EC50 (IL-6 (THP-1 cells)) of 187 nM.
O=C(Nc1cncc(-c2ccc3[nH]nc(-c4cc5c(-c6cccc(F)c6)cncc5[nH]4)c3c2)c1)C1CC1 [Compound 20, N-(5-(3-(4-(3-Fluorophenyl)-1H-pyrrolo[2,3-c]pyridin-2-yl)-1H-indazol-5-yl)pyridin-3-yl)cyclopropanecarboxamide] was tested, and the EC50 [1] was 122 nM, the EC50 [2] was 900 nM and the Emax [2] was 94%. It also gave an EC50 [3] of 45 nM, an EC50 (SW480 colon cancer cells) of 67 nM and an EC50 (IL-6 (THP-1 cells)) of 17 nM.

From patent US20180228780A1, “3-(1H-PYRROLO[2,3-C]PYRIDIN-2-YL)-1H-INDAZOLES AND THERAPEUTIC USES THEREOF” (Samumed, LLC, priority 2015, published 2018)
